Test results taken from patent US11570987B2, “Pesticidal compounds and methods of use” (New York University, priority 2019, dated 2023).

Experiments:
[1] = system: Drosophila melanogaster; experiment: Residual exposure knockdown bioassay on female fruit flies; assay type: in vivo; conditions: for KT50 against female Drosophila, comparison in words: dosage 1.06*10^−1 g/m^2, FIG. 8; for Drosophila knockdown times, comparison in words: Example 5, FIG. 5; for observed symptoms of exposed flies: fruit flies; for KT50 (median knockdown time): female Drosophila melanogaster, 2.0±0.1 mg, logistic regression of knockdown-time curves
From the text: Each symbol of FIGS. 2A-C corresponds to one female. Dashed lines indicate logistic regression of knockdown-time curves. The median knockdown time for each curve is denoted by its intersection with the horizontal KT50 marker. FIG. 2D illustrates comparison of the knockdown speeds (1/KT50) relative to DDT I. Error bars represent 95% confidence intervals (CI). Values with the same letter have overlapping 95% Cls and differences are considered insignificant. Inset: Photo of a typical female fly.
Female Drosophila melanogaster were exposed to 2.0±0.1 mg of DFDT, MFDT and DDT separately, in their crystalline and amorphous forms. The insects were monitored with a video camera until the entire population ceased to move. The videos then were analyzed to determine the knockdown times—a proxy for lethality—for each individual insect (Videos S1-S5). […] KT50 values, the times required for death of 50% of the insects, are the standard for assessing insecticide lethality (the lifetimes of individual insects differ because of the random nature of their contact with insecticide surfaces and varied susceptibility of a population). Here, the KT50 values were calculated by logistic regression of knockdown-time curves. […] Knockdown speeds, reciprocals of KT50 values, decreased in inverse order (FIG. 2d). The amorphous forms are always faster than their respective crystalline counterparts, with a-DFDT the fastest. […] Overall, the lethalities of the different solid forms of a given compound, as deduced from their knockdown speeds, were inversely correlated with their thermodynamic stability.
The relationships between functional groups that are directly attached to the central carbon atom and Drosophila knockdown times are shown in FIG. 6. […] Physical state of the compound at room temperature, and the median knockdown time (KT50) against female Drosophila are denoted below each compound. The dosage for the residual bioassay was 1.06*10^−1 g/m^2.
Residual action, which refers to the length of time a compound or composition may exist in a particular environment and remain effective, is a good proxy for the insecticidal activity of a compound. Each crystalline form was ground to a particle size similar to that of the liquid particles prepared by fine mist spraying. Lethality measurements were performed in duplicate for each solid-state form, each accompanied by two controls (no insecticide). Each microcrystalline form was added to a 10.0 cm diameter polystyrene petri dish (2.0 mg per dish), which was subsequently shaken to disperse the microcrystals throughout the petri dish. Amorphous forms were prepared by fine mist spraying a stock solution containing 70.0 mg of the respective insecticide in 10.0 mL hexane onto the top and bottom of 10.0 cm diameter polystyrene petri dishes (two sprays=0.280 mL) and allowing the hexane to evaporate at room temperature, resulting in 2.0 mg of liquid insecticide in each petri dish. 25 female adults Drosophila were sedated with carbon dioxide and flies were transferred to each petri dish. The top of the dish was then placed over the bottom and the motion of the mosquitos or fruit flies was recorded with a video camera (Sony HDR-CX455). The knockdown time was measured for each individual, with knockdown associated with an insect laying on the bottom surface of the petri dish in a supine position without moving from its original position after 10 seconds.

[2] = Acute oral toxicity, Fixed Dose Procedure (OECD Guideline 420); assay type: in vivo, rats; conditions: in vivo; rat, acute oral
Procedure: (§1) Fixed Dose Procedure (OECD Guideline 420):
(§2) (RS)-MFTE and (RS)-PFTE were test under OECD, Test No. 420: Acute Oral Toxicity—Fixed Dose Procedure, OECD Guidelines for the Testing of Chemicals, Section 4, OECD Publishing, Paris (2002), which is hereby incorporated by reference in its entirety.
(§3) Groups of five young adult animals (rats) of one sex in a stepwise procedure using the fixed doses of 5, 50, 300 and 2000 mg/kg in the main study as shown in FIG. 12B. Most tests are likely to be completed with either one or two sighting study steps and one main study step, thus using between 5 and 7 animals. Up to 5 animals are used in a limit test.

[3] = system: rats; experiment: as above; assay type: in vivo; conditions: for clinical symptoms: 5 animals; for clinical outcome of the animal in the pilot experiment: single animal
Procedure: as §1, §2, §3

[4] = system: Drosophila melanogaster; experiment: Residual exposure knockdown bioassay on female fruit flies; assay type: in vivo; conditions: for speed of action (lethality) of enantiomers and racemate, in words: fruit flies, different dosages (FIG. 9, FIG. 10)
[5] = Stability of amorphous forms at room temperature; assay type: physicochemical
From the text: DFDT and MFDT were synthesized from trichloroacetate and para-fluorobenzaldehyde to give 1-(4-fluorophenyl)-2,2,2-trichloroethanol. Subsequent reaction with fluorobenzene or chlorobenzene afforded DFDT and MFDT, respectively. Two polymorphic crystalline forms of DFDT (DFDT-I, -II) and three polymorphic forms of racemic MFDT ((RS)-MFDT-I, -II, -III) were discovered. DFDT-I single crystals could be obtained from a variety of solvents and DFDT-II single crystals from diethyl ether. (RS)-MFDT-I could be crystallized from a variety of solvents. The (R)- and (S)-MFDT enantiomers were resolved by chromatography on a chiral stationary phase, and single crystals were grown from a variety of solvents. Curiously, single crystals of (RS)-MFDT-II and -III were obtained by crystallization from the melt at >30° C. and 25° C., respectively, using seed crystals of either the R or S isomers. These crystalline forms, six total, were characterized by single crystal X-ray diffraction (FIG. 1). […] The Tm of the enantiomorphs was 47° C. Amorphous DFDT (a-DFDT), prepared by supercooling melts or fine mist spraying of solutions, afforded broad X-ray scattering halos (FIG. 1H) and was stable for 25 days at room temperature. Amorphous resolved and racemic MFDT (a-(R)- and a-(S)-MFDT, and a-(RS)-MFDT, respectively; FIG. 1H) were stable for 10 days at room temperature. These observations contrast with a-DDT, which transformed to crystalline DDT Form I within 5 hours at room temperature.

[6] = system: Anopheles quadrimaculatus; experiment: Knockdown bioassay on female Anopheles mosquitoes in coated petri dishes; assay type: in vivo; conditions: for knockdown speed, times faster than a-DDT: Anopheles and Aedes mosquitoes (FIG. 3F); for KT50: female Anopheles, 1.0±0.1 mg amorphous form in petri dish
From the text: (§4) Each symbol corresponds to one female. Dashed lines indicate logistic regression of knockdown-time curves. The median knockdown time for each curve is denoted by its intersection with the horizontal KT50 marker. FIG. 3F illustrates the relative knockdown speeds of amorphs. Error bars represent 95% confidence intervals (CI). Values with the same letter have overlapping 95% Cls and differences are considered insignificant. Insets: Photos of typical Anopheles and Aedes mosquito females.
(§5) Female Anopheles and Aedes mosquitoes exposed to 1.0±0.1 mg of various crystalline forms followed the same knockdown trend as Drosophila, see Example 2, with KT50 values decreasing in the order DDT-I>(RS)-MFDT-I>DFDT-I>DFDT-II (FIGS. 3A and 3B). […] Female mosquitoes were introduced into petri dishes coated with 1.0±0.1 mg of the amorphous forms, and their motions recorded (Videos S8-S10). KT50 values for a-DFDT and a-(RS)-MFDT against Anopheles were 29 and 39 minutes, and against Aedes were 30 and 40 minutes, respectively (FIGS. 3C and 3D). Corresponding KT50 values for a-DDT were much larger (120 and 112 minutes). Accordingly, the knockdown speeds for a-DFDT and a-(RS)-MFDT are 4 and 3 times faster than a-DDT, respectively (FIG. 3F).

[7] = system: Aedes aegypti; experiment: Knockdown bioassay on female Aedes mosquitoes in coated petri dishes; assay type: in vivo; conditions: 1.0±0.1 mg amorphous form in petri dish
From the text: as §4, §5

Q: Which “KT50 against female Drosophila, comparison in words” value (shortened to “KT50 against female Drosophila”) [1] does the source give for `OC(c1ccc(F)cc1)C(Cl)(Cl)Cl` (racemic) [(RS)-MFTE, 1-(4-fluorophenyl)-2,2,2-trichloro-ethanol] here?
A: comparable to that of crystalline deltamethrin Form I

Q: And the LD50 [2]?
A: 300 to 2000 mg/kg

Q: And the necropsy findings ([3]; 300 mg/kg b.w.)?
A: no relevant changes were noted except for the spleen

Q: And the clinical symptoms ([3]; 300 mg/kg b.w.)?
A: only mild symptoms (underactivity)

Q: And the necropsy findings ([3]; 2000 mg/kg b.w.)?
A: changes were seen mainly in the gastrointestinal tract

Q: And the “clinical outcome of the animal in the pilot experiment” value ([3]; 2000 mg/kg b.w.)?
A: had to be euthanized 1 day after application

Q: And the “speed of action (lethality) of enantiomers and racemate, in words” value [4]?
A: lies in between of (R) and (S)-MFTE

Q: For `OC(c1c(F)c(F)c(F)c(F)c1F)C(Cl)(Cl)Cl` (racemic) [(RS)-PFTE, 1-perfluorophenyl-2,2,2-trichloro-ethanol], which “Drosophila knockdown times, comparison in words” value [1] is on record?
A: smaller than amorphous DFDT

Q: And the “KT50 against female Drosophila” value [1]?
A: comparable to that of crystalline deltamethrin Form I

Q: What about the LD50 [2] of the same compound?
A: 300 to 2000 mg/kg

Q: What about the necropsy findings ([3]; 300 mg/kg b.w.) of the same compound?
A: no abnormal findings during necropsy

Q: And the clinical symptoms ([3]; 300 mg/kg b.w.)?
A: no clinical symptoms except for soft feces

Q: What about the necropsy findings ([3]; 2000 mg/kg b.w.) of the same compound?
A: changes were seen mainly in the gastrointestinal tract

Q: And the “clinical outcome of the animal in the pilot experiment” value ([3]; 2000 mg/kg b.w.)?
A: had to be euthanized on day 1 approx. 3 h after application

Q: Which results are given for `Fc1ccc(C(c2ccc(Cl)cc2)C(Cl)(Cl)Cl)cc1` (racemic) [a-(RS)-MFDT, 1,1,1-trichloro-2,2-(4-chlorophenyl)-(4-fluorophenyl)-ethane]?
A: time the amorphous form was stable ([5]; room temperature): 10 days; knockdown speed, times faster than a-DDT [6]: 3 times; KT50 [6]: 39 min; KT50 [7]: 40 min

Q: Which results are given for `O[C@H](c1ccc(F)cc1)C(Cl)(Cl)Cl` [(R)-MFTE, (R)-1-(4-fluorophenyl)-2,2,2-trichloro-ethanol]?
A: speed of action against deltamethrin Form I, in words ([4]; dosage above 5.30*10^−3/m^2): even faster in action than deltamethrin Form I; speed of action (lethality) of enantiomers and racemate, in words [4]: always faster in action than (S)-MFTE

Q: For `O[C@H](c1c(F)c(F)c(F)c(F)c1F)C(Cl)(Cl)Cl` [(R)-PFTE, (R)-1-perfluorophenyl-2,2,2-trichloro-ethanol], which “speed of action against (RS)-PFTE, in words” value ([4]; dosage below 1.06*10^−1/m^2) is on record?
A: faster in action than (RS)-PFTE

Q: And the “speed of action (lethality) of enantiomers and racemate, in words” value [4]?
A: always faster in action than (S)-PFTE

Q: What about the “speed of action against deltamethrin Form I, in words” value ([4]; high dosage 1.06*10^−1/m^2 and above) of the same compound?
A: slower in action than deltamethrin Form I

Q: And the “speed of action against deltamethrin, in words” value ([4]; low dosage 5.30*10^−3/m^2)?
A: faster in action than deltamethrin

Q: With `Clc1ccc(C(c2ccc(Cl)cc2)C(Cl)(Cl)Cl)cc1` [DDT, 1,1,1-trichloro-2,2-bis(4-chlorophenyl)ethane, reference compound] as the compound, how does the “KT50 against female Drosophila” value [1] read?
A: much larger

Q: What about the “observed symptoms of exposed flies” value [1] of the same compound?
A: induced hyperactivity followed by paralysis, and then death

Q: Which “KT50 (median knockdown time)” value [1] does the source give for `Clc1ccc(C(c2ccc(Cl)cc2)C(Cl)(Cl)Cl)cc1` [DDT-I, 1,1,1-trichloro-2,2-bis(4-chlorophenyl)ethane, reference compound] here?
A: 261 min

Q: Which results are given for `Fc1ccc(C(c2ccc(F)cc2)C(Cl)(Cl)Cl)cc1` [DFDT, reference compound]?
A: KT50 against female Drosophila, comparison in words [1]: much larger; observed symptoms of exposed flies [1]: induced hyperactivity followed by paralysis, and then death

Q: Which “observed symptoms of exposed flies” value [1] does the source give for `Fc1ccc(C(c2ccc(Cl)cc2)C(Cl)(Cl)Cl)cc1` (stereo not drawn) [MFDT, 1,1,1-trichloro-2,2-(4-chlorophenyl)-(4-fluorophenyl)-ethane] here?
A: induced hyperactivity followed by paralysis, and then death

Q: With `CC(O)(c1c(F)c(F)c(F)c(F)c1F)C(Cl)(Cl)Cl` (stereo not drawn) [PFTP, 2-(perfluorophenyl)-1,1,1-trichloro-propan-2-ol] as the compound, how does the “KT50 against female Drosophila” value [1] read?
A: comparable to that of crystalline deltamethrin Form I

Q: With `OC(c1ccc(C(F)(F)F)cc1)C(Cl)(Cl)Cl` (stereo not drawn) [TFMTE, 1-(4-(trifluoromethyl)phenyl)-2,2,2-trichloro-ethanol] as the compound, how does the “Drosophila knockdown times, comparison in words” value [1] read?
A: faster than DDT Form I, but not as fast as PFTE

Q: For `Fc1ccc(C(c2ccc(Cl)cc2)C(Cl)(Cl)Cl)cc1` [a-(R)-MFDT, 1,1,1-trichloro-2,2-(4-chlorophenyl)-(4-fluorophenyl)-ethane], which “time the amorphous form was stable” value ([5]; room temperature) is on record?
A: 10 days

Q: Which “time to transformation to crystalline DDT Form I” value ([5]; room temperature) does the source give for `Clc1ccc(C(c2ccc(Cl)cc2)C(Cl)(Cl)Cl)cc1` [a-DDT, 1,1,1-trichloro-2,2-bis(4-chlorophenyl)ethane] here?
A: ≤ 5 h

Q: And the KT50 [6]?
A: 120 min

Q: And the KT50 [7]?
A: 112 min

Q: Which results are given for `Fc1ccc(C(c2ccc(F)cc2)C(Cl)(Cl)Cl)cc1` [a-DFDT]?
A: time the amorphous form is stable ([5]; addition of 10 wt % PEG 100 emulsifier): at least 120 days; time the amorphous form was stable ([5]; room temperature): 25 days; KT50 (median knockdown time) [1]: 54 min; knockdown speed, times faster than a-DDT [6]: 4 times; KT50 [6]: 29 min; KT50 [7]: 30 min
